According to US20240269139A1, “COMPOUNDS FOR TARGETED PROTEIN DEGRADATION OF KINASES” (DANA-FARBER CANCER INSTITUTE, INC., priority 2020, published 2024):
Several values for one entry are separate records, joined by “and”; a condition that tells them apart may be missing. Equal entries are not always repeated. Where two headings read alike, the source gives them in different places.

Key:
[1] = biological target: T1, protein kinases (human kinome) (Homo sapiens, UniProt Q14CZ7); assay type: cell-based; conditions: Accession Q14CZ7, direction down
T1 sequence (Q14CZ7 1-662): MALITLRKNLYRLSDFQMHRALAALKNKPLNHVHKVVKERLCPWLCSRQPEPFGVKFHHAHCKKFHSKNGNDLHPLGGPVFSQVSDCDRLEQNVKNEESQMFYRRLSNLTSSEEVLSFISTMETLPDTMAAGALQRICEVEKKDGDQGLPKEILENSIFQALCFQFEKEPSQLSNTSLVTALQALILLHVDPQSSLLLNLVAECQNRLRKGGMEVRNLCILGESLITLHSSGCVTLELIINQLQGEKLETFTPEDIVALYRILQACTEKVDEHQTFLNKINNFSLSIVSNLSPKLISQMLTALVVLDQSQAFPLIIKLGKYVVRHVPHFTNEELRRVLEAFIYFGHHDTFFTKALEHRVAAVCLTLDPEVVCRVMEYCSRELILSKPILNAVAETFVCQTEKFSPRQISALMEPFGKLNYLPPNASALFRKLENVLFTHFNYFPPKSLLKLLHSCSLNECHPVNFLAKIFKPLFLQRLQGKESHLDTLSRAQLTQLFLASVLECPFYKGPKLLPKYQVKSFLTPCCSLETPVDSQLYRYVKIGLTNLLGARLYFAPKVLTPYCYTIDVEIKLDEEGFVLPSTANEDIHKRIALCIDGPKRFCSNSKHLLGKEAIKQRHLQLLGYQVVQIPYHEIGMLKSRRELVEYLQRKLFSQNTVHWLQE

[2] = biological target: T2, extended human kinome (kinase-like proteins) (Homo sapiens, UniProt Q53R41); assay: Whole cell quantitative proteomics: extended kinome hits
T2 sequence (Q53R41 1-847): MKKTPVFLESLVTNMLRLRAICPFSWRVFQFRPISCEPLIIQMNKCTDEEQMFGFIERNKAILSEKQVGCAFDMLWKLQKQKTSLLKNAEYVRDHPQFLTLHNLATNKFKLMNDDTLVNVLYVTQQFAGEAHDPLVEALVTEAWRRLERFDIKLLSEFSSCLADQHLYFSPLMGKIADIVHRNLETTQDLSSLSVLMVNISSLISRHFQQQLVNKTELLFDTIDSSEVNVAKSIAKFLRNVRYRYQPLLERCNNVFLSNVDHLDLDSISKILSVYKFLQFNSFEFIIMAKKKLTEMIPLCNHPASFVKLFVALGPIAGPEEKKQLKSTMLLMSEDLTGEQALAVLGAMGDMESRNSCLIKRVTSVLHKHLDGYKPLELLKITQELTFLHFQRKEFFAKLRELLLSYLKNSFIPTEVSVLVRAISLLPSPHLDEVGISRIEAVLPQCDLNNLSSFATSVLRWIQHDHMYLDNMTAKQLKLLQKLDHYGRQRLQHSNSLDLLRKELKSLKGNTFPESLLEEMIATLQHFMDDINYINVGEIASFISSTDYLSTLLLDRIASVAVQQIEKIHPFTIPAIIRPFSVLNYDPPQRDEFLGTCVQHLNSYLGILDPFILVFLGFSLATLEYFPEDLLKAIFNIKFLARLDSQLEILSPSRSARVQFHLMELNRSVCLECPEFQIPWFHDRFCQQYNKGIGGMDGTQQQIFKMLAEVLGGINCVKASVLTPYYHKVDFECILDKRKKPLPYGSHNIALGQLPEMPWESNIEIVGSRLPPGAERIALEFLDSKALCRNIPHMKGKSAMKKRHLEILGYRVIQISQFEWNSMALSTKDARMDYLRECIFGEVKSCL

[3] = biological target: protein kinases (human kinome) (Homo sapiens, UniProt Q16539); assay type: cell-based; conditions: for logFC MAPK14: MAPK14, accession Q16539, direction of change down; for logFC of MAPK14: Accession Q16539
protein kinases (human kinome) (Homo sapiens, UniProt Q16539), sequence (Q16539 whole entry): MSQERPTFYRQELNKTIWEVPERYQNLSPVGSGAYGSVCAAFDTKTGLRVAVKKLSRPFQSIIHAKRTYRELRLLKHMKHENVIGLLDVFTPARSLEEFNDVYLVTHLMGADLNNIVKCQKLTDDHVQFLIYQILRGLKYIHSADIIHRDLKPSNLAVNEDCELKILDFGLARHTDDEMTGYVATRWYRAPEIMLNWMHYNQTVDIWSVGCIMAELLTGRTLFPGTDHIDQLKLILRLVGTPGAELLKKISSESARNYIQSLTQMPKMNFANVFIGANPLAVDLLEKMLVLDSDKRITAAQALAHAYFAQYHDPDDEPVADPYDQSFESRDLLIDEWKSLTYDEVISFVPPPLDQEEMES

[4] = biological target: protein kinases (human kinome) (Homo sapiens, UniProt P45984); assay type: cell-based
protein kinases (human kinome) (Homo sapiens, UniProt P45984), sequence (P45984 whole entry): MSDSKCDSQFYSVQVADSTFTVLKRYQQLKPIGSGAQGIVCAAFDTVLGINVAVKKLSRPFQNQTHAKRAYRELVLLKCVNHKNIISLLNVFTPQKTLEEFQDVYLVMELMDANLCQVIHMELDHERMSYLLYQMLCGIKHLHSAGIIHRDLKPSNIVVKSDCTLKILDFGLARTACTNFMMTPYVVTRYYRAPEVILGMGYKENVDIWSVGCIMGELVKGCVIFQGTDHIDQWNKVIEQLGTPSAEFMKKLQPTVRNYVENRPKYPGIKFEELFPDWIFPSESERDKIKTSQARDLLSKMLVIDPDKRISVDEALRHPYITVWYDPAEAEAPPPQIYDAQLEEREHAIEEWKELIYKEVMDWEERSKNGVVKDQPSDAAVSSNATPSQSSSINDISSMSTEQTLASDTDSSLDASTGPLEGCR

[5] = biological target: protein kinases (human kinome) (Homo sapiens, UniProt Q15119); assay type: cell-based; conditions: experiment wp056
[6] = MAPK14 (Q16539) protein abundance, degrader vs DMSO, down
[7] = MAPK9 P45984-1, experiment wp045
[8] = MAPK14 (Q16539), experiment wp168
[9] = MAPK9 P45984-1, experiment wp168
[10] = MAPK14 (Q16539), experiment wp107
[11] = MAPK14 (Q16539), experiment wp172
[12] = MAPK9 P45984-1, experiment wp103
[13] = MAPK9 P45984-1, experiment wp105
[14] = MAPK9 P45984-1, experiment wp107
[15] = MAPK9 P45984-1, experiment wp114
[16] = MAPK9 P45984-1, experiment wp117
[17] = MAPK9 P45984-1, experiment wp160, 2 hr
[18] = MAPK9 P45984-1, experiment wp160, 4 hr
[19] = MAPK9 P45984-1, experiment wp160, 8 hr
[20] = MAPK9 P45984-1, experiment wp172

In the case of `Cc1cnc(Nc2ccc(N3CCN(CCOCCOCCNC(=O)COc4cccc5c4C(=O)N(C4CCC(=O)NC4=O)C5=O)CC3)cc2)nc1Nc1cccc(S(=O)(=O)NC(C)(C)C)c1` (centres unmarked) [JWG.118], the “logFC FASTKD3” value ([1]; experiment wp071) is reported as −0.4386.
For `CC(C)S(=O)(=O)c1ccccc1Nc1nc(Nc2ccc(N3CCN(CCOCCOCCC(=O)NCCNc4cccc5c4CN(C4CCC(=O)NC4=O)C5=O)CC3)cc2)ncc1Cl` (centres unmarked) [TL13.97], the “logFC FASTKD1 (Q53R41)” value ([2]; experiment wp137) was −0.3684.
`Cc1ccc(NC(=O)c2cccc(C(F)(F)F)c2)cc1N1Cc2cnc(Nc3ccc(N4CCN(CCCCCCOc5cccc6c5C(=O)N(C5CCC(=O)NC5=O)C6=O)CC4)nc3)nc2N(C)C1=O` (centres unmarked) [DB0663] was tested, and the logFC [3, 6] was −0.6293, the “logFC MAPK14” value ([3]; experiment wp045) was −0.6293 and the logFC [4, 7] was −0.598. The “logFC MAPK9” value [4, 7] was −0.598.
`Cc1ccc(NC(=O)c2cccc(C(F)(F)F)c2)cc1N1Cc2cnc(Nc3ccc(N4CCN(CCCOc5cccc6c5C(=O)N(C5CCC(=O)NC5=O)C6=O)CC4)nc3)nc2N(C)C1=O` (centres unmarked) [DB0662] was tested, and the logFC [3, 8] was −1.002, the “logFC MAPK14” value ([3]; experiment wp166) was −1.002 and the logFC [4, 9] was −2.611. For the same compound, the “logFC MAPK9” value [4, 9] was −2.611.
In the case of `Cc1ccc(C(=O)Nc2ccc(CN3CCN(CCCOCCOCCOCCNC(=O)COc4cccc5c4C(=O)N(C4CCC(=O)NC4=O)C5=O)CC3)c(C(F)(F)F)c2)cc1C#Cc1cnc2cccnn12` (centres unmarked) [SB1.G.187], the “logFC of MAPK14” value ([3]; experiment wp172) is reported as −0.5198, the logFC ([3]; MAPK14 (Q16539), experiment wp103) is reported as −0.83 and the logFC [3, 10] is reported as −0.924. For the same compound, the logFC [3, 11] was −0.5198, the “logFC MAPK14” value ([3]; experiment wp103) was −0.83 and the “logFC MAPK14” value ([3]; experiment wp107) was −0.924. The “logFC PDK2” value ([5]; Accession Q15119-1) was −0.4016, the “logFC PDK2 (Q15119-1)” value [5] was −0.4016 and the “logFC FASTKD1” value ([2]; Accession Q53R41, experiment wp056) was −0.4811.
With `Cc1ccc(NC(=O)c2cccc(C(F)(F)F)c2)cc1N1Cc2cnc(Nc3ccc(N4CCN(Cc5cn(CCCCCOc6cccc7c6C(=O)N(C6CCC(=O)NC6=O)C7=O)nn5)CC4)nc3)nc2N(C)C1=O` (centres unmarked) [DB0646, N-(3-(7-((6-(4-((1-(5-((2-(2,6-Dioxopiperidin-3-yl)-1,3-dioxoisoindolin-4-yl)oxy)pentyl)-1H-1,2,3-triazol-4-yl)methyl)piperazin-1-v)pyridin-3-yl)amino)-1-methyl-2-oxo-1,4-dihydropyrimido[4,5-d]pyrimidin-3(2H)-yl)-4-methylphenyl)-3-(trifluoromethyl)benzamide] the “logFC of MAPK14” value ([3]; experiment wp172) was −0.6469, the logFC [3, 6] was −0.7793 and −0.6013 and the logFC [3, 10] was −0.7601. The logFC ([3]; MAPK14 (Q16539), experiment wp114) was −0.5814, the logFC ([3]; MAPK14 (Q16539), experiment wp117) was −0.6392 and the logFC ([3]; MAPK14 (Q16539), experiment wp152) was −0.7821. It also gave a logFC ([3]; MAPK14 (Q16539), experiment wp160, 2 hr) of −0.4404, a logFC ([3]; MAPK14 (Q16539), experiment wp160, 4 hr) of −0.7162 and a logFC ([3]; MAPK14 (Q16539), experiment wp160, 8 hr) of −1.153. The logFC [3, 11] was −0.6469, the “logFC MAPK14” value ([3]; experiment wp045) was −0.7793 and the “logFC MAPK14” value ([3]; experiment wp103) was −0.6013. The “logFC MAPK14” value ([3]; experiment wp107) was −0.7601, the “logFC MAPK14” value ([3]; experiment wp114) was −0.5814 and the “logFC MAPK14” value ([3]; experiment wp117) was −0.6392. The “logFC MAPK14” value ([3]; experiment wp152) was −0.7821, the “logFC MAPK14” value ([3]; experiment wp160, 2 hr) was −0.4404 and the “logFC MAPK14” value ([3]; experiment wp160, 4 hr) was −0.7162. The “logFC MAPK14” value ([3]; experiment wp160, 8 hr) was −1.153, the “logFC FASTKD3” value ([1]; experiment wp152) was −0.3418 and the “logFC MAPK9 (P45984)” value ([4]; Experiment wp152, direction of change down) was −2.161. The logFC [4, 7] was −1.344, the “logFC MAPK9” value [4, 7] was −1.344 and the logFC [4, 12] was −1.045. For the same compound, the “logFC MAPK9” value [4, 12] was −1.045, the logFC [4, 13] was −0.929 and the “logFC MAPK9” value [4, 13] was −0.929. For the same compound, the logFC [4, 14] was −1.414, the “logFC MAPK9” value [4, 14] was −1.414 and the logFC [4, 15] was −0.5078. The “logFC MAPK9” value [4, 15] was −0.5078, the logFC [4, 16] was −1.488 and the “logFC MAPK9” value [4, 16] was −1.488. For the same compound, the logFC [4, 17] was −0.7555, the “logFC MAPK9” value [4, 17] was −0.7555 and the logFC [4, 18] was −1.498. The “logFC MAPK9” value [4, 18] was −1.498, the logFC [4, 19] was −2.137 and the “logFC MAPK9” value [4, 19] was −2.137. For the same compound, the logFC [4, 20] was −0.8343, the “logFC MAPK9” value [4, 20] was −0.8343 and the “logFC MAPK9” value ([4]; MAPK9 P45984, experiment wp152) was −2.161.
With `Cn1c(=O)c(-c2c(Cl)cccc2Cl)cc2cnc(Nc3ccc(OCCNC(=O)CCCCCCNC(=O)COc4cccc5c4C(=O)N(C4CCC(=O)NC4=O)C5=O)cc3)nc21` (centres unmarked) [SB1.G.192.1] the logFC [3, 6] was −0.8915 and −0.7293, the logFC ([3]; MAPK14 (Q16539), experiment wp131) was −0.7463 and the “logFC MAPK14” value ([3]; experiment wp071) was −0.8915. The “logFC MAPK14” value ([3]; experiment wp081) was −0.7293, the “logFC MAPK14” value ([3]; experiment wp131) was −0.7463 and the “logFC FASTKD1 (Q53R41)” value ([2]; experiment wp081) was −0.4222.
`Cc1ccc(NC(=O)c2cccc(C(F)(F)F)c2)cc1N1Cc2cnc(Nc3ccc(N4CCN(CCCCC(=O)N[C@H](C(=O)N5C[C@H](O)C[C@H]5C(=O)N[C@@H](C)c5ccc(-c6scnc6C)cc5)C(C)(C)C)CC4)nc3)nc2N(C)C1=O` [DB1113] was tested, and the “logFC of MAPK14” value ([3]; experiment wp168) was −1.73, the logFC [3, 8] was −1.73 and the logFC [4, 9] was −1.216. The “logFC MAPK9” value [4, 9] was −1.216.
